Data from patent publication US10457691B2, “Macrocyclic kinase inhibitors and uses thereof” (Dana-Farber Cancer Institute, Inc., priority 2014, dated 2019).

Columns and labels:
Type in all cases: biochemical
Conditions in all cases: read-out: Activity of the protein kinase when treated with compound I-1 (% control)
MARK1 = MARK1 (Homo sapiens, UniProt Q9P0L2); test: Protein kinase assay ([γ-32P] ATP), MARK1
Description: (§1) In another set of experiments, the activities of the compounds described herein against various protein kinases were determined according to the methods reported in Hastie et al., Nature Protocols, 2006, 1, 968-971.
(§2) Enzyme dilution buffer. This buffer consisted of 50 mM Tris-HCl, pH 7.5, 0.1 mM EGTA, 1 mg ml^−1 bovine serum albumin and 0.1% (vol/vol) 2-mercaptoethanol.
(§3) 10× concentrated assay buffer. An assay buffer of 500 mM Tris-HCl, pH 7.5, 1 mM EGTA, and 100 mM magnesium acetate was used for assay of a wide variety of protein kinases. In some experiments, other cofactors were included (e.g., calcium ions and calmodulin were included for assay of calcium-calmodulindependent protein kinases).
(§4) 1 mM [γ-^32P] ATP. The specific activity of the [γ-^32P] ATP solution was 1×10^5 to 1×10^6 c.p.m. per nmol depending on what was needed to produce an optimal signal/noise ratio. […] To measure the concentration of ATP, a sample of such a stock solution was diluted to 20 μM, and the absorbance of the diluted sample was measured at 259 nm. The absorbance of a 20-μM stock solution of ATP at 259 nm was about 0.31. […] ATP to produce a radioactivity of 1×10^5 to 1×10^6 c.p.m. per nmol. […]
(§5) 13) Measure radioactivity in the samples by Cerenkov counting (e.g., without liquid scintillation fluid) in a liquid scintillation counter using a “^32P program”. […]

MSK1 = MSK1 (Homo sapiens, UniProt O75582); test: Protein kinase assay ([γ-32P] ATP), MSK1
Description: as §1, §2, §3, §4, §5

NUAK1 = NUAK1 (Homo sapiens, UniProt O60285); test: Protein kinase assay ([γ-32P] ATP), NUAK1
NUAK1, sequence (O60285 whole entry): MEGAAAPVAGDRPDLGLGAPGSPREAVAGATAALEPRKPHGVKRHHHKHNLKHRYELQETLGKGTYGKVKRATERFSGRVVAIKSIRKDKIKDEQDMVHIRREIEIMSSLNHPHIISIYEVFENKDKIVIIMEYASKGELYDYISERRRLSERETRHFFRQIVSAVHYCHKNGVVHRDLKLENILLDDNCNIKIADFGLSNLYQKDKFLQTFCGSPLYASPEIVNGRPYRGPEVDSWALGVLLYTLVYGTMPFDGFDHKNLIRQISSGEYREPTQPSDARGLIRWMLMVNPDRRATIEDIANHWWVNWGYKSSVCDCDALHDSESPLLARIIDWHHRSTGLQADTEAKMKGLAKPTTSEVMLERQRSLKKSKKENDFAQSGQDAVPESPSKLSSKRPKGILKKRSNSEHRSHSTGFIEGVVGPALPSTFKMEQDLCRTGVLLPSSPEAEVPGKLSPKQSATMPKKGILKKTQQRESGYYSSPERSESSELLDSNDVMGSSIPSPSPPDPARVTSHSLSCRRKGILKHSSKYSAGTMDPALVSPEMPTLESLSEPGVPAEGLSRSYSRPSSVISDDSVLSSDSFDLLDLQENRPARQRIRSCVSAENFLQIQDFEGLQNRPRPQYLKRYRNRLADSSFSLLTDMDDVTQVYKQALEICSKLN
Description: as §1, §2, §3, §4, §5

PRAK = PRAK (Homo sapiens, UniProt Q8IW41); test: Protein kinase assay ([γ-32P] ATP), PRAK
Description: as §1, §2, §3, §4, §5

CDK2-Cyclin A = CDK2-Cyclin A (Homo sapiens, UniProt P24941); test: Protein kinase assay ([γ-32P] ATP), CDK2-Cyclin A
Description: as §1, §2, §3, §4, §5

RSK2 = RSK2 (Homo sapiens, UniProt P51812); test: Protein kinase assay ([γ-32P] ATP), RSK2
Description: as §1, §2, §3, §4, §5

PAK5 = PAK5 (Homo sapiens, UniProt Q9P286); test: Protein kinase assay ([γ-32P] ATP), PAK5
PAK5, sequence (Q9P286 whole entry): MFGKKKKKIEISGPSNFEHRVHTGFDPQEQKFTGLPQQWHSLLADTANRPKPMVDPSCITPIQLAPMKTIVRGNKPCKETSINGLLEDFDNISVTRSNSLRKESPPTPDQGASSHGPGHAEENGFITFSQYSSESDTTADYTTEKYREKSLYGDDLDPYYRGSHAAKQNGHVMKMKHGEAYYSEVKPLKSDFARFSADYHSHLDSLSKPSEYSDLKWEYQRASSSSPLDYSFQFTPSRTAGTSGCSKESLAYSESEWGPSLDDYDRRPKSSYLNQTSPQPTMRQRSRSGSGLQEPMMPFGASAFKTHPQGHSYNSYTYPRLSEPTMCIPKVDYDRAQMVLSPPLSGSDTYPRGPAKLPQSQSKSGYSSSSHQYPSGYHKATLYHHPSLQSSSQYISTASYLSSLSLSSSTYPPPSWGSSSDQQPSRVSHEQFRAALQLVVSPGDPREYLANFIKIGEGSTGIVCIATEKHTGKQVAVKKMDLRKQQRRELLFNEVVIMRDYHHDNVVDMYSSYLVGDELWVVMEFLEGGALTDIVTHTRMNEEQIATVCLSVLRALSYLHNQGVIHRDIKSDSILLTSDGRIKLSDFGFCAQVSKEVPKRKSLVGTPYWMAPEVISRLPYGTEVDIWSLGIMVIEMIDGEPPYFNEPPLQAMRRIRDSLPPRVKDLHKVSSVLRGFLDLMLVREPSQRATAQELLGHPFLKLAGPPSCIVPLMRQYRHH
Description: as §1, §2, §3, §4, §5

TTK = TTK (Homo sapiens, UniProt P33981); test: Protein kinase assay ([γ-32P] ATP), TTK
TTK, sequence (P33981 whole entry, species assumed): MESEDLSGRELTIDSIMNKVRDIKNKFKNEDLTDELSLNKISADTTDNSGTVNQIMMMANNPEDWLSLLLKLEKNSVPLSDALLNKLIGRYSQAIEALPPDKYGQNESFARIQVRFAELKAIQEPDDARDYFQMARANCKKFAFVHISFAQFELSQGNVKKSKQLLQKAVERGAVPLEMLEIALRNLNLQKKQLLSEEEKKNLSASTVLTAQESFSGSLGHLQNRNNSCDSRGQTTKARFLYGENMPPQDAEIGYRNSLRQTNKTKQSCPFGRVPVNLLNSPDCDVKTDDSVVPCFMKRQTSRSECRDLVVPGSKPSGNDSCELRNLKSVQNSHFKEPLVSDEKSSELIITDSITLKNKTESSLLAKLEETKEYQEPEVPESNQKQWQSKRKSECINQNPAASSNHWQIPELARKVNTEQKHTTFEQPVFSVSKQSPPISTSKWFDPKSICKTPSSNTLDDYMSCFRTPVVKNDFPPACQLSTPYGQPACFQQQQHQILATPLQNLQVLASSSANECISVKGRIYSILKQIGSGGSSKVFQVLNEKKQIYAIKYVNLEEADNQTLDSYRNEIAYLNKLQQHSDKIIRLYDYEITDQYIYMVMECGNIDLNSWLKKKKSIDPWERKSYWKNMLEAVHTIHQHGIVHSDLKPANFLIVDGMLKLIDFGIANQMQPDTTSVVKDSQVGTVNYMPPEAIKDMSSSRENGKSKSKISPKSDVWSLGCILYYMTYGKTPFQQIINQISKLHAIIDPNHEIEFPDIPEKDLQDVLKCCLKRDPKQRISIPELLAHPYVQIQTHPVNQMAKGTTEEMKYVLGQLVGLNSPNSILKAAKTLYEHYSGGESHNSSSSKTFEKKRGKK
Description: as §1, §2, §3, §4, §5

S6K1 = S6K1 (Homo sapiens, UniProt P23443); test: Protein kinase assay ([γ-32P] ATP), S6K1
Description: as §1, §2, §3, §4, §5

GCK = GCK (Homo sapiens, UniProt Q12851); test: Protein kinase assay ([γ-32P] ATP), GCK
Description: as §1, §2, §3, §4, §5

Lck = Lck (Homo sapiens, UniProt P06239); test: Protein kinase assay ([γ-32P] ATP), Lck
Description: as §1, §2, §3, §4, §5

PIM2 = PIM2 (Homo sapiens, UniProt Q9P1W9); test: Protein kinase assay ([γ-32P] ATP), PIM2
PIM2, sequence (Q9P1W9 whole entry): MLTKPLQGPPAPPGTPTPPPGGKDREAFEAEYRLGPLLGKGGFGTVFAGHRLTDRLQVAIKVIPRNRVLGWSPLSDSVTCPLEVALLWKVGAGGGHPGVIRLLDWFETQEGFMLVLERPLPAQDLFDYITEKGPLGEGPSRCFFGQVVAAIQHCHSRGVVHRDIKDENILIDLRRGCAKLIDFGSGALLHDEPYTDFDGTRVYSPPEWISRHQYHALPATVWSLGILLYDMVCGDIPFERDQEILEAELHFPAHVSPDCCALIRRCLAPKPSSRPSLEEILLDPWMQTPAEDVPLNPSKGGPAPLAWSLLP
Description: as §1, §2, §3, §4, §5

HIPK2 = HIPK2 (Homo sapiens, UniProt Q9H2X6); test: Protein kinase assay ([γ-32P] ATP), HIPK2
HIPK2, sequence (Q9H2X6 whole entry): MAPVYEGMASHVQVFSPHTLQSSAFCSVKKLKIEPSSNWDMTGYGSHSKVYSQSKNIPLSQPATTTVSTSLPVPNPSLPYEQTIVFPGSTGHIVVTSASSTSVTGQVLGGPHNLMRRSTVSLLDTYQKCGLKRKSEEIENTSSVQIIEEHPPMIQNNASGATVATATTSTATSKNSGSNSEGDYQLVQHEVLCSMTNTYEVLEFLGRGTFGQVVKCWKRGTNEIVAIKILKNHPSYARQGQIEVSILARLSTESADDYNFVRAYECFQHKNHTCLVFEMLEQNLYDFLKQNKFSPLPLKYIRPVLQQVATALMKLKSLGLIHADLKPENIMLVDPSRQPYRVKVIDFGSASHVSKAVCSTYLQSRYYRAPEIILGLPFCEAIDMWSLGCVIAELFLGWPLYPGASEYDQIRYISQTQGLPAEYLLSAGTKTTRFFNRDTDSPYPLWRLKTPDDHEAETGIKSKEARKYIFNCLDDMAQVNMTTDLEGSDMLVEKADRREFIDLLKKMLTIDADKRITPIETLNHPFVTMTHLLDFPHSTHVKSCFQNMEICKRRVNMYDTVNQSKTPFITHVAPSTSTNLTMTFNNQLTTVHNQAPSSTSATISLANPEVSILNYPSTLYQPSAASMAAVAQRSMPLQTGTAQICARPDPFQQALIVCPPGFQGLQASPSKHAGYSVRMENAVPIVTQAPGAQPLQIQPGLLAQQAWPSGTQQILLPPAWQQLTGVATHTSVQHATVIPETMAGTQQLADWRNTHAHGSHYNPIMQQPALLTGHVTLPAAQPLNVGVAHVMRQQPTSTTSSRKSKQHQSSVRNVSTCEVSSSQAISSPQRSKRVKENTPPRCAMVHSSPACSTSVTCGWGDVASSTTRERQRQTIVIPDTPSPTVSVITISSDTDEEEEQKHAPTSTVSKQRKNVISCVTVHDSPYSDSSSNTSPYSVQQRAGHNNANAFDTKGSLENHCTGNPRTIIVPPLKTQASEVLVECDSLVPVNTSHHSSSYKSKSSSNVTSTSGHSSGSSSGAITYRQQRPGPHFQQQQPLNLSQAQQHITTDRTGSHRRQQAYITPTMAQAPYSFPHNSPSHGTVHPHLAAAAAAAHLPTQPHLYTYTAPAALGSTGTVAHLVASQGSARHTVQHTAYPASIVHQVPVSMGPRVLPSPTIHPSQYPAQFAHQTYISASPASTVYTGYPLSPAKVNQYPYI
Description: as §1, §2, §3, §4, §5

HIPK1 = HIPK1 (Homo sapiens, UniProt Q86Z02); test: Protein kinase assay ([γ-32P] ATP), HIPK1
Description: as §1, §2, §3, §4, §5

DAPK1 = DAPK1 (Homo sapiens, UniProt P53355); test: Protein kinase assay ([γ-32P] ATP), DAPK1
Description: as §1, §2, §3, §4, §5

CK1δ = CK1δ (Homo sapiens, UniProt P48730); test: Protein kinase assay ([γ-32P] ATP), CK1δ
CK1δ, sequence (P48730 whole entry): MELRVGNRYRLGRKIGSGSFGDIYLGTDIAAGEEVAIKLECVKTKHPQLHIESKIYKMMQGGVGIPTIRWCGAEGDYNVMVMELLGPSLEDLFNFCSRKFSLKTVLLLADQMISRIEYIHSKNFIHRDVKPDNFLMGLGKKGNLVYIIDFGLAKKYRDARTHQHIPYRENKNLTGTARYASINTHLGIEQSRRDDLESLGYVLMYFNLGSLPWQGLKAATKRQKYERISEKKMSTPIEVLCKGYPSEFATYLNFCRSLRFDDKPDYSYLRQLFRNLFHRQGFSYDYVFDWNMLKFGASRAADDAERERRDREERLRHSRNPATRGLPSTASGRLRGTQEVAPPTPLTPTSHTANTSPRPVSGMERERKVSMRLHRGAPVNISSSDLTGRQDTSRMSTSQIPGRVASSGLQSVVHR
Description: as §1, §2, §3, §4, §5

VEG-FR = VEG-FR (Homo sapiens, UniProt P17948); test: Protein kinase assay ([γ-32P] ATP), VEG-FR
Description: as §1, §2, §3, §4, §5

[1] = 0.1 μM of compound I-1, DMSO control = 100%
[2] = 1 μM of compound I-1, DMSO control = 100%

MARK1, sequence (Q9P0L2 whole entry): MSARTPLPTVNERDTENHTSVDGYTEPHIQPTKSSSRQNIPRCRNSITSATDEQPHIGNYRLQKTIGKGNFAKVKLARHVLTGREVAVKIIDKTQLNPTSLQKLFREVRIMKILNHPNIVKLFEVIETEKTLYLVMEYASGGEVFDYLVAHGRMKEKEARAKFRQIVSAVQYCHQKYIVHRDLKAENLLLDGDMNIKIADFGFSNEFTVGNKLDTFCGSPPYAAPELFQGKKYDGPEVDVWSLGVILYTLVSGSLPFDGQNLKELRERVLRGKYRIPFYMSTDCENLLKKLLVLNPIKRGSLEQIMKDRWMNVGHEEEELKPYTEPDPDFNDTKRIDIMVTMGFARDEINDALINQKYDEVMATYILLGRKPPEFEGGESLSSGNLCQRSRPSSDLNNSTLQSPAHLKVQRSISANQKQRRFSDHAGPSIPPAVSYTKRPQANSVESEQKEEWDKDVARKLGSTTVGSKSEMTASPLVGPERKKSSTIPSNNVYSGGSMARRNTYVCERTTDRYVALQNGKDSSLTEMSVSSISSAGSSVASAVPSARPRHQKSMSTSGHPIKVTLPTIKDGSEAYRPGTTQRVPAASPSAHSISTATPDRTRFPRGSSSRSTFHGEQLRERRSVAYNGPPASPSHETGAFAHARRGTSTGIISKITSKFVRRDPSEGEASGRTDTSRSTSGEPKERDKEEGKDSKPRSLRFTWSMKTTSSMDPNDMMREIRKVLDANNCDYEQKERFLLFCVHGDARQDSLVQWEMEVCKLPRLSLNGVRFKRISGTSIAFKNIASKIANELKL

SMILES: Cc1cccc(C)c1NC(=O)N1C/C=C\COc2cccc(c2)Nc2cc1ncn2 [Compound I-1]
- remaining activity at 0.1 µM (MARK1; [1]): 62%
- remaining activity at 1 µM (MARK1; [2]): 68%
- remaining activity at 0.1 µM (MSK1; [1]): 107%
- remaining activity at 1 µM (MSK1; [2]): 81%
- remaining activity at 0.1 µM (NUAK1; [1]): 100%
- remaining activity at 1 µM (NUAK1; [2]): 93%
- remaining activity at 0.1 µM (PRAK; [1]): 107%
- remaining activity at 1 µM (PRAK; [2]): 84%
- remaining activity at 0.1 µM (CDK2-Cyclin A; [1]): 107%
- remaining activity at 1 µM (CDK2-Cyclin A; [2]): 84%
- remaining activity at 0.1 µM (RSK2; [1]): 98%
- remaining activity at 1 µM (RSK2; [2]): 81%
- remaining activity at 0.1 µM (PAK5; [1]): 90%
- remaining activity at 1 µM (PAK5; [2]): 64%
- remaining activity at 0.1 µM (TTK; [1]): 99%
- remaining activity at 1 µM (TTK; [2]): 79%
- remaining activity at 0.1 µM (S6K1; [1]): 105%
- remaining activity at 1 µM (S6K1; [2]): 83%
- remaining activity at 0.1 µM (GCK; [1]): 71%
- remaining activity at 1 µM (GCK; [2]): 16%
- remaining activity at 0.1 µM (Lck; [1]): 4%
- remaining activity at 1 µM (Lck; [2]): 3%
- remaining activity at 0.1 µM (PIM2; [1]): 92%
- remaining activity at 1 µM (PIM2; [2]): 90%
- remaining activity at 0.1 µM (HIPK2; [1]): 110%
- remaining activity at 1 µM (HIPK2; [2]): 91%
- remaining activity at 0.1 µM (HIPK1; [1]): 99%
- remaining activity at 1 µM (HIPK1; [2]): 82%
- remaining activity at 0.1 µM (DAPK1; [1]): 99%
- remaining activity at 1 µM (DAPK1; [2]): 85%
- remaining activity at 0.1 µM (CK1δ; [1]): 97%
- remaining activity at 1 µM (CK1δ; [2]): 99%
- remaining activity at 0.1 µM (VEG-FR; [1]): 49%
- remaining activity at 1 µM (VEG-FR; [2]): 7%
